Source: patent US20260125388A1 (priority 2022, published 2026)
Values after ≈ are worked out from the molar mass of the structure shown. Like-named read-outs stand apart in the source and are kept apart here.

Columns and labels:
GABAA receptor = GABAA receptor binding, competition assay with [3H]-flunitrazepam and rat brain membranes; details: for GABAAR binding, % inhibition at 10 μM: Table 3
Description: GABAA receptor binding: Rat brain membranes were prepared from frozen tissue that was thawed on ice and homogenized on ice in 10 volumes of cold lysis buffer (50 mM Tris HCl, pH 7.4, containing protease inhibitor cocktail from Roche) using a Polytron homogenizer (6 pulses and 10 seconds per pulse). The homogenate was centrifuged at 1,000×g for 10 min at 4° C. to obtain the supernatant. The supernatant was then centrifuged at 40,000×g for 20 min, and the resulting supernatant decanted and replaced with the same ice-cold lysis buffer. Two or three additional rounds of homogenization-centrifugation were performed to ensure thorough homogenization and also to wash out endogenous ligands. The final pellet was resuspended in the same buffer and homogenized one last time. […] Total binding and nonspecific binding were determined with reference compound clonazepam. […] Scintillation cocktail is then melted onto the microwave-dried filters on a hot plate and radioactivity counted in a Microbeta counter. The data (n=6) were analyzed by nonlinear regression.

[1] = Aqueous solubility, shake flask in PBS buffer; format: physicochemical; details: for solubility at 24 h: PBS buffer, aqueous buffer, thermodynamic from solid
Description: 5-50 mg of compound was added to 500 μL of PBS buffer at pH 7.4. The pH was adjusted if necessary, using a 1M NaOH solution. The solutions were vortexed for 10 s, sonicated for 2 min and agitated with a horizontal shaker in a closed vial for 24 h. The mixtures were transferred to an Eppendorf tube and centrifuged for 5 min at 16000×g followed by filtration through […] cellulose acetate spin X centrifuge filter (Costar). 200 μL of filtrate was transferred to a new Eppendorf tube and 200 μL of methanol was added and then subsequent dilution was made in 50:50 methanol/PBS buffer water if necessary. After mixing, 50 μL were transferred into a 384 well plate (Coring UV star, 781801) for UV detection at 250-600 nm (Tecan M1000). The assay was carried out with three independent samples of each compound. The concentration of each solution was determined with a calibration curve in 50:50 methanol/PBS buffer water. Absorbance of corresponding methanol PBS blank were recorded and subtracted from the absorbance of calibration curve solutions and from the samples.

in vitro = details: PAMPA, pH 7.4
Description: (§1) The artificial membrane was prepared by carefully pipetting 15 μL of the 5% (v/v) hexadecane in hexane solution to each of the wells of the donor plate. The plate was placed into a fume hood for 1 h to ensure complete evaporation of the hexane. After the hexane had evaporated, 300 μL of PBS with 5% (v/v) DMSO was added to each of the wells of the acceptor plate. The hexadecane treated donor plate was then placed on top of the acceptor plate taking care that the underside of the membrane is completely in contact with the solution in each of the acceptor wells. […] The lid was placed on the plates and the entire plate sandwich was placed into a closed humid environment. The container was then placed on a reciprocal shaker for agitation at about 100 rpm. The time at the beginning of the incubation was recorded, as this is a thermodynamic-based assay. The incubation was then allowed to continue for 18 h. The donor plate was removed and 50 μL of the acceptor solution was transferred to the UV plate. Drug solutions at the theoretical equilibrium concentration (100 μM) was also prepared and transferred to the UV plate. The absorbance of the solutions in the UV plate was then scanned from 250-600 nm with 1 nm steps and a 5 nm bandwidth. Log Pe was calculated as follows (Equation 1).

HEK293 cells = test: Cytotoxicity, CellTiter-Glo cell viability assay; format: cell-based, human; details: for Cytotoxicity LD50: HEK293 cells, CellTiter-Glo, Table 3
Description: Compounds with increased cytotoxicity can be identified using an in vitro cytotoxicity assay. Therefore, human embryonic kidney 293T (HEK293T) cell lines were purchased (ATCC) and cultured in 75 cm2 flasks (CellStar). Cells were grown in DMEM/High Glucose (Hyclone, #SH3024301) media to which non-essential amino acids (Hyclone, #SH30238.01), 10 mM HEPES (Hyclone, #SH302237.01), 5×106 units of penicillin and streptomycin (Hyclone, #SV30010), and 10% of heat inactivated fetal bovine serum (Gibco, #10082147) were added. Cells were harvested using 0.05% Trypsin (Hyclone, #SH3023601). The cell viability assay was evaluated using CellTiter-Glo™ Luminescent Cell Viability Assay Kit (Promega, Madison, WI), which contains luciferase and all its substrate except ATP. The controls for the cytotoxicity assay used were (E)-10-(bromotriphenylphosphoranyl)decyl 4-(4-(tert-butyl)phenyl)-4-oxobut-2-enoate (400 μM in DMSO, positive control) and DMSO (negative control). All luminescence readings were performed on a Tecan Infinite M1000 plate reader. Small volume transfers were performed on the Tecan Freedom EVO liquid handling system with a 100 nL pin tool transfer (V&P Scientific). Serial dilutions were done in 96-well polypropylene plates (Coming, #3365) and assays were conducted in 384-well white optical bottom plates. The assays were carried out in quadruplet in three independent runs. The data were normalized to the controls and if possible analyzed by nonlinear regression (GraphPad Prism).

[2] = parallel artificial membrane permeation assay at pH 7.4
Description: as §1

[3] = system: C57/BL6 male mice challenged with MC903; test: Mouse atopic dermatitis model, MC903 challenge, twice daily oral dosing; format: in vivo
Source text: An established mouse model of atopic dermatitis (AD) was used to evaluate the efficacy of PI-301 ((R)-8-bromo-6-(2-fluorophenyl)-4-methyl-4H-benzo[f]-imidazo[1,5-a][1,4]diazepine-3-carboxylic acid) in reducing ear thickness, scratching frequency, and inflammatory markers following MC903 challenge (for background on the model see: J Invest Dermatol 138, 2606-2616; Proc Natl Acad Sci USA, 103, 11736-11741; Sci Transl Med, 5, 170ra116; J Invest Dermatol, 138, 1555-1563). The increase of ear thickness is based on the increased diameter of stratum, epidermis, and dermis as determined by standard histological analysis. The thickening of the stratum is based on parakeratosis and hyperkeratosis, the thickening of the epidermis is based on acanthosis and spongiosis and the thickening of the dermis is based on inflammatory infiltration. This reflects increased numbers of neutrophils, mast cells, and, to a lesser extent, eosinophils.
C57/BL6 male mice 8 weeks of age were group housed under a 12 h light/dark cycle. For oral dosing, groups of 8 mice were each given twice daily treatment by voluntary feeding of vehicle (peanut butter) or PI-301 (100 mg/kg in vehicle). Animal weights were recorded daily. Three times per week animals were administered MC903 (1 nmol) on both ears topically. Ear thickness was measured with calipers and photographed.

[4] = system: C57/BL6 mice challenged with MC903; test: Acute treatment in the MC903 mouse model, scratch count; format: in vivo; details: single oral gavage on day 19; recording from 40 min after dose; oclacitinib 45 mg/kg, PI-301 100 mg/kg; p<0.05 vs vehicle
Description: In another study, the acute treatment effects of oclacitinib (a JAK inhibitor approved for veterinary use) and PI-301 were studied in the MC903 model using C57/BL6 mice. As described previously, MC903 was applied topically on both sides of both ears (1 nmol). On day 19 of the study (D1), drugs or vehicle were administered to individual treatment groups by oral gavage: oclacitinib (45 mg/kg) or PI-301 (100 mg/kg). Mice were video recorded for 60 minutes beginning 40 minutes after drug administration and scratches counted.

[5] = system: IL-6, IL-10, IL-13 and TSLP mRNA in mouse ears; test: RT-PCR of cytokine mRNA in ears of MC903 challenged mice; format: in vivo; details: ear mRNA, vs vehicle
Description: RT-PCR was used to assay the change in cytokines in MC903 challenged animals treated with PI-301. Left mouse ears stored at −20° C. were thawed, rinsed with water and homogenized in 500 μL RLT buffer (Qiagen, 79216). The liquid was added to a QIAshredder (Qiagen, 79654) and centrifuged at 6000 g for 2 min. 350 μL of the supernatant was combined with 350 μL 70% ethanol and mRNA purified with a RNeasy Mini Kit (Qiagen, 74104). mRNA was analyzed using the Accuris qMAX Green One-Step RT-qPCR Kit (Accuris Instruments) along with primers for IL-4, IL-5, IL-6, IL-10, IL-13, INFγ, and TSLP. Data were acquired using an Eppendorf Mastercycler Pro (45° C. 10 min, 95° C. 2 min, [95° C. 30 s, 55° C. 1 min, 72° C. 2 min]×45) and analyzed by the Delta and Delta-Delta Ct method. Each measurement was carried out in triplicate.

[6] = 10 μM, 3H-flunitrazepam, rat brain extract
[7] = read-out: GABAAR binding (IC50), value in brackets, 3H-flunitrazepam, rat brain extract, Table 3, unit inferred

## C#Cc1ccc2c(c1)C(c1ccccc1F)=NC1(CC1)c1c(C(=O)OCC)ncn1-2 [Compound 18]
GABAA receptor; [6]
  GABAAR binding, % inhibition at 10 μM: 56%
GABAA receptor; [7]
  IC50: 509 nM
[1]; pH 7.2, read-out: Aqueous solubility
  solubility at 24 h: 0.053 ± 0.003 mM (≈ 21.2 µg/mL)
In vitro
  Papp: 25.1 ×10⁻⁶ cm/s
HEK293 cells
  Cytotoxicity LD50: >150 µM

## CC1(C)N=C(c2ccccc2F)c2cc(Br)ccc2-n2cnc(C(=O)O)c21 [Compound 34, 8-bromo-6-(2-fluorophenyl)-4,4-dimethyl-4H-benzo[f]imidazo[1,5-a][1,4]diazepine-3-carboxylic acid]
[2]
  Permeability (log Pe (cm/s)): −7.0 ± 0.22 cm/s
GABAA receptor; [6]
  GABAAR binding, % inhibition at 10 μM: 74%
GABAA receptor; 10 μM, [3H]-flunitrazepam, rat brain, Table 1
  % Inhibition at 10 μM: 74.4%
GABAA receptor; [3H]-flunitrazepam, rat brain, Table 1
  IC50: 4050 nM
GABAA receptor; [7]
  IC50: 4050 nM
[1]; pH 7.2, cells marked b, read-out: Aqueous solubility (footnote b: mM)
  solubility at 24 h: 4.4 mM (≈ 1880 µg/mL)
HEK293 cells
  Cytotoxicity LD50: >300 µM
HEK293 cells; human kidney cells, Table 2
  LD50 HEK293: >400 µM

## CCC1N=C(c2ccccc2F)c2cc(Br)ccc2NC1=O (stereo not drawn) [Compound 35, 7-bromo-3-ethyl-5-(2-fluorophenyl)-1,3-dihydro-2H-benzo[e][1,4]diazepin-2-one]
GABAA receptor; [6]
  GABAAR binding, % inhibition at 10 μM: 95%
GABAA receptor; [7]
  IC50: 134 nM
[1]; pH 7.2
  Aqueous solubility: 397 ± 31 µM
In vitro
  Papp: 2 ×10⁻⁶ cm/s
HEK293 cells
  Cytotoxicity LD50: >150 µM

## C[C@H]1N=C(c2ccccc2F)c2cc(Br)ccc2-n2cnc(C(=O)O)c21 [PI-301, (R)-8-bromo-6-(2-fluorophenyl)-4-methyl-4H-benzo[f]-imidazo[1,5-a][1,4]diazepine-3-carboxylic acid]
[3]; 100 mg/kg oral twice daily, days 19 and 22, vs vehicle
  number of scratches: significantly reduced
[3]; 100 mg/kg oral twice daily, significant on day 10, vs vehicle
  increase of ear thickness due to MC903: reduced the increase of ear thickness
[3]; histology of H&E stained ear sections, p<0.005 vs vehicle
  thicknesses of the dermis and epidermis: significant differences
[4]
  scratches counted over 60 minutes: significant (p<0.05) reduction in scratches
[5]
  IL-6 induction: reduced induction
  IL-10 induction: reduced induction
  IL-13 induction: reduced induction
  TSLP induction: reduced induction

## CNS(=O)(=O)C[C@H]1CC[C@H](N(C)c2ncnc3[nH]ccc23)CC1 [oclacitinib, reference compound]
[4]
  scratches counted over 60 minutes: significant (p<0.05) reduction in scratches
